Test results as given in PMC6959545 (European journal of medicinal chemistry, 2013).
One block for each molecule: values may come before it.

Key:
[1] = molecular target: T1, human TRPV1 (Homo sapiens, UniProt Q8NER1); assay: hTRPV1 antagonism of capsaicin; assay type: cell-based; details: for fold less potent than 11, CAP antagonism: compared with 2-butoxy derivative 11; for fold less potent than 12, CAP antagonism: compared with 2-pentyloxy derivative 12
[2] = system: mice (formalin test); assay: formalin test in mice, oral administration; assay type: in vivo
[3] = molecular target: T1, human TRPV1; assay: hTRPV1 antagonism of pH activation, FLIPR; assay type: cell-based; details: compound 1 vs lead 2

T1 sequence (Q8NER1 whole entry): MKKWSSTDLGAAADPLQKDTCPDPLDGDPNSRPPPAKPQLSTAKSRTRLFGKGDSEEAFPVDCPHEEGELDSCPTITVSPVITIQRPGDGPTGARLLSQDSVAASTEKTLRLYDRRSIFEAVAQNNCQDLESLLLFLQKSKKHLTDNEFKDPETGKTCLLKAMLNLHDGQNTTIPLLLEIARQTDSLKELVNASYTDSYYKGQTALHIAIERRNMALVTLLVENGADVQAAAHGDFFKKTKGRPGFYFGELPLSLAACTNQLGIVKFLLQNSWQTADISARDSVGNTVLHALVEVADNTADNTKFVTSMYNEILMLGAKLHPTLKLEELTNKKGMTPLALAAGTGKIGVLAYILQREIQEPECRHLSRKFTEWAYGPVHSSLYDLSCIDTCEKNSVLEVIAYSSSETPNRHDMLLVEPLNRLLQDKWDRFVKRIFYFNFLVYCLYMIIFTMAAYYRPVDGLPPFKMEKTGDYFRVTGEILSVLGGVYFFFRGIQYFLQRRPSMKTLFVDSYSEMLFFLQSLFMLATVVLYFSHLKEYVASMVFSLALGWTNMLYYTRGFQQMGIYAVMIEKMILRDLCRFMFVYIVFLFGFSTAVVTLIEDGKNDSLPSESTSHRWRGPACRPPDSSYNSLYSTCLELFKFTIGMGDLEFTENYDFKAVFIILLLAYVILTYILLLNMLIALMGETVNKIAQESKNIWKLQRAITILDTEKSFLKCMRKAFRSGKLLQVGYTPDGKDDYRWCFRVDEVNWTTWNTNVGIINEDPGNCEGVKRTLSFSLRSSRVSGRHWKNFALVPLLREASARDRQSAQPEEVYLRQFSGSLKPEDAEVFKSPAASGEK

SMILES: C/C=C\COc1nc(C(F)(F)F)ccc1CNC(=O)C(C)c1ccc(NS(C)(=O)=O)c(F)c1 (stereo not shown) [Compound 14, (Z)-N-((2-(But-2-en-1-yloxy)-6-(trifluoromethyl)pyridin-3-yl)methyl)-2-(3-fluoro-4-(methylsulfonamido)phenyl)propanamide]
- fold less potent than 11, CAP antagonism [1]: ca. 5 fold

SMILES: COCCOc1nc(C(F)(F)F)ccc1CNC(=O)C(C)c1ccc(NS(C)(=O)=O)c(F)c1 (stereo not shown) [Compound 16, N-((2-(2-Methoxyethoxy)-6-(trifluoromethyl)pyridin-3-yl)methyl)-2-(3-fluoro-4-(methylsulfonamido)phenyl)propanamide]
- fold less potent than 11, CAP antagonism [1]: 160 fold

SMILES: CC(C)COc1nc(C(F)(F)F)ccc1CNC(=O)C(C)c1ccc(NS(C)(=O)=O)c(F)c1 (stereo not shown) [Compound 22, N-((2-Isobutoxy-6-(trifluoromethyl)pyridin-3-yl)methyl)-2-(3-fluoro-4-(methylsulfonamido)phenyl)propanamide]
- analgesic activity in the formalin test [2]: strong analgesic activity

SMILES: CC1CCN(c2nc(C(F)(F)F)ccc2CNC(=O)C(C)c2ccc(NS(C)(=O)=O)c(F)c2)CC1 (stereo not shown) [Compound 1, reference compound]
- fold better than precedent lead 2, CAP antagonism ([1]; compound 1 vs lead 2): 150 fold
- fold better than precedent lead 2, pH antagonism [3]: 230 fold

SMILES: CC(C(=O)NCc1ccc(C(F)(F)F)nc1OCc1ccccc1)c1ccc(NS(C)(=O)=O)c(F)c1 (stereo not shown) [Compound 53, N-((2-Benzyloxy-6-(trifluoromethyl)pyridin-3-yl)methyl)-(3-fluoro-4-(methylsulfonamido)phenyl)propanamide]
- analgesic activity in the formalin test [2]: strong analgesic activity

The next lines start with the values.

- fold less potent than 12, CAP antagonism [1]: 70 fold
SMILES: CCOCCOc1nc(C(F)(F)F)ccc1CNC(=O)C(C)c1ccc(NS(C)(=O)=O)c(F)c1 (stereo not shown) [Compound 17, N-((2-(2-Ethoxyethoxy)-6-(trifluoromethyl)pyridin-3-yl)methyl)-2-(3-fluoro-4-(methylsulfonamido)phenyl)propanamide]

- fold less potent than 12, CAP antagonism [1]: 22 fold
SMILES: COCCCOc1nc(C(F)(F)F)ccc1CNC(=O)C(C)c1ccc(NS(C)(=O)=O)c(F)c1 (stereo not shown) [Compound 18, N-((2-(3-Methoxypropoxy)-6-(trifluoromethyl)pyridin-3-yl)methyl)-2-(3-fluoro-4-(methylsulfonamido)phenyl)propanamide]

- fold less potent than 13, CAP antagonism ([1]; compared with 2-hexyloxy derivative 13): 20 fold
SMILES: CCOCCCOc1nc(C(F)(F)F)ccc1CNC(=O)C(C)c1ccc(NS(C)(=O)=O)c(F)c1 (stereo not shown) [Compound 19, N-((2-(3-Ethoxypropoxy)-6-(trifluoromethyl)pyridin-3-yl)methyl)-2-(3-fluoro-4-(methylsulfonamido)phenyl)propanamide]

- fold less potent than 12, CAP antagonism [1]: ~1.5 fold
SMILES: CC/C=C\COc1nc(C(F)(F)F)ccc1CNC(=O)C(C)c1ccc(NS(C)(=O)=O)c(F)c1 (stereo not shown) [Compound 15, (Z)-N-((2-(Pent-2-en-1-yloxy)-6-(trifluoromethyl)pyridin-3-yl)methyl)-2-(3-fluoro-4-(methylsulfonamido)phenyl)propanamide]
